Measurements taken from ChEMBL document CHEMBL5131499, “Design, synthesis and glycosidase inhibition of C-4 branched LAB and DAB derivatives” (Eur J Med Chem, 2022).

tested on: Penicillium decumbens; experiment: Inhibition of Penicillium decumbens alpha-L-rhamnosidase assessed as release of p-nitrophenol at 1000 uM using p-nitrophenyl glycoside as substrate by spectrometric assay relative to control

| SMILES | inhibition [%] |
| --- | --- |
| OC[C@H]1NC[C@@H](O)[C@@H]1O | < 50 |
| OC[C@@]1(c2cccc(F)c2)NC[C@@H](O)[C@@H]1O | 0 |
| OC[C@@]1(c2ccccc2)NC[C@@H](O)[C@@H]1O | 0 |
| C[C@]1(CO)NC[C@@H](O)[C@@H]1O | 10.1 |

species on record: Bos taurus; experiment: Inhibition of bovine liver beta-galactosidase assessed as release of p-nitrophenol at 1000 uM using p-nitrophenyl glycoside as substrate by spectrometric assay relative to control

| SMILES | inhibition [%] |
| --- | --- |
| OC[C@H]1NC[C@@H](O)[C@@H]1O | < 50 |
| OC[C@@]1(c2cccc(F)c2)NC[C@@H](O)[C@@H]1O | 21.7 |
| OC[C@@]1(c2ccccc2)NC[C@@H](O)[C@@H]1O | 34.1 |
| C[C@]1(CO)NC[C@@H](O)[C@@H]1O | 37.6 |

biological target: Sucrase-isomaltase, intestinal (Rattus norvegicus, UniProt P23739); experiment: Inhibition of rat intestinal sucrase assessed as release of p-nitrophenol using p-nitrophenyl glycoside as substrate by spectrometric assay
Sequence (P23739 1-1013 limits assumed): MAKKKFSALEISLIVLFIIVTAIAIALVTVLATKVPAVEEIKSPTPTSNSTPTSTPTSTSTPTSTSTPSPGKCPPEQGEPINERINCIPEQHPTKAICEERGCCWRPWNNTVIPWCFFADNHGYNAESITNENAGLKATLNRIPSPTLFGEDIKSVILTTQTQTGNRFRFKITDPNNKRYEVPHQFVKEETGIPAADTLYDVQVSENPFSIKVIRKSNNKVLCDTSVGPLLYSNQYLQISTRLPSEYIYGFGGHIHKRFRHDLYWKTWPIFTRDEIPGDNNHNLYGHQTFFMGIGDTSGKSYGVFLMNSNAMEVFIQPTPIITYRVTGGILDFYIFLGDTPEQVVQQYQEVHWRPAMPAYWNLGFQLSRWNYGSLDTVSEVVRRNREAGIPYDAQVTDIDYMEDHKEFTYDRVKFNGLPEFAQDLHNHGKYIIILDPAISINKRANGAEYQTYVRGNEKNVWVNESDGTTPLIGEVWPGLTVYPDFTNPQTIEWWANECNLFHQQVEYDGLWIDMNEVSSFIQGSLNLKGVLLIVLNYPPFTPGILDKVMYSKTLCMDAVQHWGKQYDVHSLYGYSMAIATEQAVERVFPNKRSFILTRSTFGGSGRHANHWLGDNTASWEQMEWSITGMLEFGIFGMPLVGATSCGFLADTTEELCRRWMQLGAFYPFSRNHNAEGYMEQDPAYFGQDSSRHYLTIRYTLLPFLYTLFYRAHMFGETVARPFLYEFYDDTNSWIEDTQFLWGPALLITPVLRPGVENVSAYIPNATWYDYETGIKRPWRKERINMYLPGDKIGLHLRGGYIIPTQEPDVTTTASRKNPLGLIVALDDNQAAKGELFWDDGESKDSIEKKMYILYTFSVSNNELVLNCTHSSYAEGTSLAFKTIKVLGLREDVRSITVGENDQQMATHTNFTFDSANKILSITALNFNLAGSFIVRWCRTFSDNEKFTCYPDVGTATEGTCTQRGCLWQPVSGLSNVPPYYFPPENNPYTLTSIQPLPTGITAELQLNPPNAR
Sequence (P23739 1014-1841 limits assumed): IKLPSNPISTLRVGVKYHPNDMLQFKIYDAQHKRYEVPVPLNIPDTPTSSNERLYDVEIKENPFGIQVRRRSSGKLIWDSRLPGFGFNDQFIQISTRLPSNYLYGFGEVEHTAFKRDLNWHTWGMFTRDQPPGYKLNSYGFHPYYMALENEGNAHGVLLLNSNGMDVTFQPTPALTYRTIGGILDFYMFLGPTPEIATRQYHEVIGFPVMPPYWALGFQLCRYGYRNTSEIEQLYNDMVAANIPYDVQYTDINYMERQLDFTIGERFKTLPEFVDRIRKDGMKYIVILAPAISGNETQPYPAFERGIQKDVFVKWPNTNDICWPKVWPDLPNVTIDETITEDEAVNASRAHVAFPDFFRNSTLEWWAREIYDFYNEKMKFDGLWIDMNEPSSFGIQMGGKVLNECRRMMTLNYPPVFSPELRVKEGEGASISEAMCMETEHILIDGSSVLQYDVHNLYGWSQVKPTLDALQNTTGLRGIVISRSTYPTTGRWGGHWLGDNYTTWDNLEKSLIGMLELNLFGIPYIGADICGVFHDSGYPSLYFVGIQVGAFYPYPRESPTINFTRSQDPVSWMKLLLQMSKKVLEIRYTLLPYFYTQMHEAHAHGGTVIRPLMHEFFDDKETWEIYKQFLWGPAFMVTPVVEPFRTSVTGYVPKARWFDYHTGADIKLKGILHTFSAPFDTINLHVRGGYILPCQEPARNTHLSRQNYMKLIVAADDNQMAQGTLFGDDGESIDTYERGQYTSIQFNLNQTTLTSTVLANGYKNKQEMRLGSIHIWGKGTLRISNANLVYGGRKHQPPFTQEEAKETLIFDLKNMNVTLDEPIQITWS

| SMILES | IC50 [µM] |
| --- | --- |
| OC[C@@]1(c2cccc(F)c2)NC[C@@H](O)[C@@H]1O | 6.5 |
| C[C@]1(CO)NC[C@@H](O)[C@@H]1O | 2.2 |

biological target: not listed separately; experiment: Inhibition of Aspergillus niger amyloglucosidase assessed as release of p-nitrophenol using p-nitrophenyl glycoside as substrate by spectrometric assay

| SMILES | IC50 [µM] |
| --- | --- |
| OC[C@H]1NC[C@@H](O)[C@@H]1O | 362 |

tested on: Escherichia coli; experiment: Inhibition of Escherichia coli beta-glucuronidase assessed as release of p-nitrophenol at 1000 uM using p-nitrophenyl glycoside as substrate by spectrometric assay relative to control

| SMILES | inhibition [%] |
| --- | --- |
| OC[C@@]1(c2cccc(F)c2)NC[C@@H](O)[C@@H]1O | 0 |
| OC[C@@]1(c2ccccc2)NC[C@@H](O)[C@@H]1O | 7.3 |
| C[C@]1(CO)NC[C@@H](O)[C@@H]1O | 4.8 |

species on record: Rattus norvegicus; experiment: Inhibition of rat intestinal alpha-trehalase assessed as release of p-nitrophenol at 1000 uM using p-nitrophenyl glycoside as substrate by spectrometric assay relative to control

| SMILES | inhibition [%] |
| --- | --- |
| OC[C@@]1(c2cccc(F)c2)NC[C@@H](O)[C@@H]1O | 0 |

biological target: not listed separately; experiment: Inhibition of porcine kidney alpha-trehalase assessed as release of p-nitrophenol using p-nitrophenyl glycoside as substrate by spectrometric assay; design: species or system Sus scrofa

| SMILES | IC50 [µM] |
| --- | --- |
| OC[C@H]1NC[C@@H](O)[C@@H]1O | 4.8 |

biological target: not listed separately; experiment: Inhibition of bovine liver beta-glucosidase assessed as release of p-nitrophenol using p-nitrophenyl glycoside as substrate by spectrometric assay; design: species or system Bos taurus

| SMILES | IC50 [µM] |
| --- | --- |
| OC[C@H]1NC[C@@H](O)[C@@H]1O | 638 |

tested on: Oryza sativa; experiment: Inhibition of rice alpha-glucosidase assessed as release of p-nitrophenol at 1000 uM using p-nitrophenyl glycoside as substrate by spectrometric assay relative to control

| SMILES | inhibition [%] |
| --- | --- |
| OC[C@@]1(c2cccc(F)c2)NC[C@@H](O)[C@@H]1O | 1.4 |
| OC[C@@]1(c2ccccc2)NC[C@@H](O)[C@@H]1O | 18.6 |

biological target: T1, Alpha-mannosidase (Canavalia ensiformis) (UniProt C0HJB3); experiment: Inhibition of jack bean alpha-mannosidase assessed as release of p-nitrophenol at 1000 uM using p-nitrophenyl glycoside as substrate by spectrometric assay relative to control
T1 sequence (whole entry): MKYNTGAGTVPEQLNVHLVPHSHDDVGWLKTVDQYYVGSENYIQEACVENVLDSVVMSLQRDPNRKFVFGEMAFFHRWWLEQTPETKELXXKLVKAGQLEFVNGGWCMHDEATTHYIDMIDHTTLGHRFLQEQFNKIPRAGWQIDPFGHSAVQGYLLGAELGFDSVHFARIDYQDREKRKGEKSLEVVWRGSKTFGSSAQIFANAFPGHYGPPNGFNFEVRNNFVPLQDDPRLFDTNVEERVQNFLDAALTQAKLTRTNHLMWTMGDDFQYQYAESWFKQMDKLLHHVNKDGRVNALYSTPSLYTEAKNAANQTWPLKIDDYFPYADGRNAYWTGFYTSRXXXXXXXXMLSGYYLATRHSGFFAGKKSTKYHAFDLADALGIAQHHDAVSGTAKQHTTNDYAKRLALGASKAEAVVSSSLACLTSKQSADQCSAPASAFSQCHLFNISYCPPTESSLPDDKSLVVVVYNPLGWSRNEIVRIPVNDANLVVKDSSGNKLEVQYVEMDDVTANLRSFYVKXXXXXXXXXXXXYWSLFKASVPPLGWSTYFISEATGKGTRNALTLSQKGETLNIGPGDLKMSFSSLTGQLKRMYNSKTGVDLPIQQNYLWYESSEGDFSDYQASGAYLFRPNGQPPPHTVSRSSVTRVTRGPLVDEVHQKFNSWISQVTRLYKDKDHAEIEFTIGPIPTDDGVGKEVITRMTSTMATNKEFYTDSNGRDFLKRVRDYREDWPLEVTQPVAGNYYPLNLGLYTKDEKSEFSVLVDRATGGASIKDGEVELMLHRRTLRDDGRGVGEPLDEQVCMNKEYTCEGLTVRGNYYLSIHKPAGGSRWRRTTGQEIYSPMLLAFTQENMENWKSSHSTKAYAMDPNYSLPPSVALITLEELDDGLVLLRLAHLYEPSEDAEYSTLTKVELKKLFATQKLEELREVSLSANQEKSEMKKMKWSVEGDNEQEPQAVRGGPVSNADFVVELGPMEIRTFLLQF

| SMILES | inhibition [%] |
| --- | --- |
| OC[C@@]1(c2cccc(F)c2)NC[C@@H](O)[C@@H]1O | 0 |
| OC[C@@]1(c2ccccc2)NC[C@@H](O)[C@@H]1O | 0 |
| C[C@]1(CO)NC[C@@H](O)[C@@H]1O | 3.8 |

species on record: Sus scrofa; experiment: Inhibition of porcine kidney alpha-trehalase assessed as release of p-nitrophenol at 1000 uM using p-nitrophenyl glycoside as substrate by spectrometric assay relative to control

| SMILES | inhibition [%] |
| --- | --- |
| OC[C@@]1(c2cccc(F)c2)NC[C@@H](O)[C@@H]1O | 3.8 |
| OC[C@@]1(c2ccccc2)NC[C@@H](O)[C@@H]1O | 0.8 |
| C[C@]1(CO)NC[C@@H](O)[C@@H]1O | 3.9 |

biological target: Sucrase-isomaltase, intestinal (Rattus norvegicus) (UniProt P23739); experiment: Inhibition of rat intestinal sucrase assessed as release of p-nitrophenol at 1000 uM using p-nitrophenyl glycoside as substrate by spectrometric assay relative to control
Sequence (P23739 1-1013 limits assumed): as the sequence (P23739 1-1013 limits assumed) above
Sequence (P23739 1014-1841 limits assumed): as the sequence (P23739 1014-1841 limits assumed) above

| SMILES | inhibition [%] |
| --- | --- |
| OC[C@@]1(c2ccccc2)NC[C@@H](O)[C@@H]1O | 42.8 |

biological target: T2, Tissue alpha-L-fucosidase (Bos taurus) (UniProt Q2KIM0); experiment: Inhibition of bovine kidney alpha-L-fucosidase assessed as release of p-nitrophenol at 1000 uM using p-nitrophenyl glycoside as substrate by spectrometric assay relative to control
T2 sequence (whole entry): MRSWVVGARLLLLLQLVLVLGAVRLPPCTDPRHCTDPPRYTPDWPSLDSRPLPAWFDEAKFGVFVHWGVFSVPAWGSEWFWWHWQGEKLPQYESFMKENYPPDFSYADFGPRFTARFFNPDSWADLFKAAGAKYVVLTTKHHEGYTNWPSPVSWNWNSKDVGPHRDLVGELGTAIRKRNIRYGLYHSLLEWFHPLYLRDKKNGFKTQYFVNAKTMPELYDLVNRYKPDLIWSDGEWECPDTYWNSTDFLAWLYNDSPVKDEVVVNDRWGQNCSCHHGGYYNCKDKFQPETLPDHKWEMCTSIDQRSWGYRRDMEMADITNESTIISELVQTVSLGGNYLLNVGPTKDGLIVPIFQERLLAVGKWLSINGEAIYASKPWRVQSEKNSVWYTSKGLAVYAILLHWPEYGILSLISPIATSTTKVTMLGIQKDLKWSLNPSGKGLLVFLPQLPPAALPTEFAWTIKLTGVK

| SMILES | inhibition [%] |
| --- | --- |
| OC[C@@]1(c2cccc(F)c2)NC[C@@H](O)[C@@H]1O | 0 |
| OC[C@@]1(c2ccccc2)NC[C@@H](O)[C@@H]1O | 0 |
| C[C@]1(CO)NC[C@@H](O)[C@@H]1O | 10.9 |

biological target: T3, Lysosomal alpha-glucosidase (Homo sapiens, UniProt P10253); experiment: Inhibition of human lysosomal alpha glucosidase assessed as release of p-nitrophenol at 1000 uM using p-nitrophenyl glycoside as substrate by spectrometric assay relative to control

| SMILES | inhibition [%] |
| --- | --- |
| OC[C@@]1(c2cccc(F)c2)NC[C@@H](O)[C@@H]1O | 10.3 |
| OC[C@@]1(c2ccccc2)NC[C@@H](O)[C@@H]1O | 35 |

biological target: Alpha-galactosidase (Coffea arabica) (UniProt Q42656); experiment: Inhibition of coffee beans alpha-galactosidase assessed as release of p-nitrophenol at 1000 uM using p-nitrophenyl glycoside as substrate by spectrometric assay relative to control
Sequence (Q42656 16-378 limits assumed): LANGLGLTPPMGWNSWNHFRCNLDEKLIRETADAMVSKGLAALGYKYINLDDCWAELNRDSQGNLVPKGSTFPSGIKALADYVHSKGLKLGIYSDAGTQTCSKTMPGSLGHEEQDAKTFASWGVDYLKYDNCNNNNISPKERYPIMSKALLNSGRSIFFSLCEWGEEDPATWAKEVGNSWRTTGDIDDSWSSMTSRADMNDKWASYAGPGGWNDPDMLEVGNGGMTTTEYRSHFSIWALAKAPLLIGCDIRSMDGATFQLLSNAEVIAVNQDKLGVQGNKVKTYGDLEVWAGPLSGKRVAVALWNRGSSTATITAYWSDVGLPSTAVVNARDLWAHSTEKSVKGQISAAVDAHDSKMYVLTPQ

| SMILES | inhibition [%] |
| --- | --- |
| OC[C@@]1(c2cccc(F)c2)NC[C@@H](O)[C@@H]1O | 0 |
| OC[C@@]1(c2ccccc2)NC[C@@H](O)[C@@H]1O | 9.9 |
| C[C@]1(CO)NC[C@@H](O)[C@@H]1O | 0.6 |

tested on: Aspergillus niger; experiment: Inhibition of Aspergillus niger amyloglucosidase assessed as release of p-nitrophenol at 1000 uM using p-nitrophenyl glycoside as substrate by spectrometric assay relative to control

| SMILES | inhibition [%] |
| --- | --- |
| OC[C@@]1(c2cccc(F)c2)NC[C@@H](O)[C@@H]1O | 8.3 |
| OC[C@@]1(c2ccccc2)NC[C@@H](O)[C@@H]1O | 0 |
| C[C@]1(CO)NC[C@@H](O)[C@@H]1O | 4.7 |

biological target: T3, Lysosomal alpha-glucosidase; experiment: Inhibition of human lysosomal alpha glucosidase assessed as release of p-nitrophenol using p-nitrophenyl glycoside as substrate by spectrometric assay

| SMILES | IC50 [µM] |
| --- | --- |
| C[C@]1(CO)NC[C@@H](O)[C@@H]1O | 16 |

tested on: Saccharomyces cerevisiae; experiment: Inhibition of yeast alpha-glucosidase assessed as release of p-nitrophenol at 1000 uM using p-nitrophenyl glycoside as substrate by spectrometric assay relative to control

| SMILES | inhibition [%] |
| --- | --- |
| OC[C@@]1(c2cccc(F)c2)NC[C@@H](O)[C@@H]1O | 41.8 |
| OC[C@@]1(c2ccccc2)NC[C@@H](O)[C@@H]1O | 22 |
| C[C@]1(CO)NC[C@@H](O)[C@@H]1O | 12.4 |

tested on: Helix pomatia; experiment: Inhibition of snail beta-mannosidase assessed as release of p-nitrophenol at 1000 uM using p-nitrophenyl glycoside as substrate by spectrometric assay relative control

| SMILES | inhibition [%] |
| --- | --- |
| OC[C@H]1NC[C@@H](O)[C@@H]1O | < 50 |
| OC[C@@]1(c2cccc(F)c2)NC[C@@H](O)[C@@H]1O | 0 |
| OC[C@@]1(c2ccccc2)NC[C@@H](O)[C@@H]1O | 0 |
| C[C@]1(CO)NC[C@@H](O)[C@@H]1O | 0 |

species on record: Bos taurus; experiment: Inhibition of bovine liver beta-glucronidase assessed as release of p-nitrophenol at 1000 uM using p-nitrophenyl glycoside as substrate by spectrometric assay relative to control

| SMILES | inhibition [%] |
| --- | --- |
| OC[C@@]1(c2cccc(F)c2)NC[C@@H](O)[C@@H]1O | 26.2 |
| OC[C@@]1(c2ccccc2)NC[C@@H](O)[C@@H]1O | 1.8 |
| C[C@]1(CO)NC[C@@H](O)[C@@H]1O | 4.3 |

biological target: not listed separately; experiment: Inhibition of yeast alpha-glucosidase assessed as release of p-nitrophenol using p-nitrophenyl glycoside as substrate by spectrometric assay; design: species or system Saccharomyces cerevisiae

| SMILES | IC50 [µM] |
| --- | --- |
| OC[C@H]1NC[C@@H](O)[C@@H]1O | 0.15 |

species on record: Bos taurus; experiment: Inhibition of bovine liver beta-glucosidase assessed as release of p-nitrophenol at 1000 uM using p-nitrophenyl glycoside as substrate by spectrometric assay relative to control

| SMILES | inhibition [%] |
| --- | --- |
| OC[C@@]1(c2cccc(F)c2)NC[C@@H](O)[C@@H]1O | 16.7 |
| OC[C@@]1(c2ccccc2)NC[C@@H](O)[C@@H]1O | 29.6 |
| C[C@]1(CO)NC[C@@H](O)[C@@H]1O | 35.7 |

tested on: Prunus dulcis; experiment: Inhibition of almond beta-glucosidase assessed as release of p-nitrophenol at 1000 uM using p-nitrophenyl glycoside as substrate by spectrometric assay relative to control

| SMILES | inhibition [%] |
| --- | --- |
| OC[C@@]1(c2cccc(F)c2)NC[C@@H](O)[C@@H]1O | 0.9 |
| OC[C@@]1(c2ccccc2)NC[C@@H](O)[C@@H]1O | 2.3 |
| C[C@]1(CO)NC[C@@H](O)[C@@H]1O | 6.8 |
